Experimental data taken from US12259352B2, “Membrane enhanced sensors” (University Of Cincinnati, priority 2018, dated 2025).

What was measured:
[1] = cited from earlier work
[2] = Cortisol transport through hydrophobic barrier (track-etch membrane with castor oil) to electrochemical aptamer sensor, FIG. 6B; conditions: sensor solution hundreds of micrometers thick; track-etch membrane of 10% porosity filled with castor oil

For CCCCCC/C=C\CCCCCCCC(=O)O [Palmitoleic Acid], the “Solubility in Water (in words)” value [1] is given as “Low”.

For CCCCC/C=C\C/C=C\C/C=C\C/C=C\CCCC(=O)O [Arachidonic Acid], the “Solubility in Water (in words)” value [1] is given as “Negligible”.

In the case of C[C@]12CCC(=O)C=C1CC[C@@H]1[C@@H]2[C@@H](O)C[C@@]2(C)[C@H]1CC[C@]2(O)C(=O)CO [cortisol], the “concentration lag time (time for sensor solution to reach 90% of sample solution concentration)” value [2] was roughly 30 min.
